Test results as given in paper PMC12535076, “Neurotherapeutic effects of Vutiglabridin as a Paraoxonase-2 modulator in preclinical models of Parkinson’s disease” (Molecular Neurodegeneration, 2025).

Tests used:
MAO-B = biological target: T1, MAO-B (Homo sapiens, UniProt P27338); test: ROS Glo based MAO-B enzyme activity assay; type: biochemical; conditions: read-out: IC50, MAO-B assay, ROS-Glo method
T1 sequence (P27338 1-520): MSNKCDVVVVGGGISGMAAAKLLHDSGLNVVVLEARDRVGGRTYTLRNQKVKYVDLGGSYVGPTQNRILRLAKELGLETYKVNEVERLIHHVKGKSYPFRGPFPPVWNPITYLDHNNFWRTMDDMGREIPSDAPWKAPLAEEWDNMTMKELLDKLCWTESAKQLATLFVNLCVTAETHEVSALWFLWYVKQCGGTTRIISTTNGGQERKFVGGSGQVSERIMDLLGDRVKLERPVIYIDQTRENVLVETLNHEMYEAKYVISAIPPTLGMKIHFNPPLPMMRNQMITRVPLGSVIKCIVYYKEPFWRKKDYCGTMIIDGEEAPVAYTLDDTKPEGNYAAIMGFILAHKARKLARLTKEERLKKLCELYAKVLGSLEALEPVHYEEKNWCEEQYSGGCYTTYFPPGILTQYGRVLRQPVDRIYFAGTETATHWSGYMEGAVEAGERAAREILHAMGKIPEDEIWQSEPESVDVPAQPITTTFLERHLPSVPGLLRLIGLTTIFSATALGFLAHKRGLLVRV
Experimental: An enzyme solution was prepared by diluting 10 µL of a 2.5 mg/mL MAO-A or MAO-B stock in 10 mL of 50 mM sodium phosphate buffer (pH 7.4). A substrate solution was prepared by diluting 200 µL of a 100 mM benzylamine (or tyramine) stock in 10 mL phosphate buffer to achieve a final concentration of 1 mM. For each 96-well plate experiment, 12.5 µL of a 1× H2O2 probe solution was added to 1 mL of the probe dilution buffer from the ROS Glo™ kit. Separately, 40 µL of cysteine and enhancer were diluted into 4 mL of Luciferin solution. In each well, 49 µL of the enzyme solution was dispensed, followed by 1 µL of the test compound, and incubated for 30 min. […] Next, 10 µL of the H2O2 probe solution was added and incubated for 15 min. […] Luminescence was subsequently recorded using a microplate luminescence reader (SpectraMax i3, Molecular Devices).

[1] = test system: SH-SY5Y human neuroblastoma cells; test: Cell-based mitochondrial activity assays in MPP+-treated SH-SY5Y cells
Experimental: Human SH-SY5Y neuroblastoma cells (ATCC® (CRL-2266™; Manassas, VA, USA) were first cultured in Dulbecco’s Modified Eagle Medium (DMEM)/F12 supplemented with 10% fetal bovine serum (FBS), 100 U/mL penicillin, and 100 µg/mL streptomycin (complete media, CM) at 37 °C with 5% CO2. Cells (5 × 10^4 cells/well) then were cultured in 96-well plates for 24 h followed by incubation in serum-deficient media (SDM, culture media containing 0.5% FBS) for 16 h. […] The treated cells were harvested according to the purpose and analyzed.
A systemic cell-based mitochondrial function analysis system was established using SH-SY5Y cells in 96-well plates based on fluorescence detection methods as described previously. The assay system covers quantitative assays for methyl thiazyl tetrazolium-mitochondrial dehydrogenase activity (MTT), TMRE-based mitochondrial membrane potential (TMRE), ATP contents, and ROS of cells. Cells in black 96-well culture plate were incubated with 200 nM TMRE and 0.5 µM Hoechst 33,342 for 30 min at 37 °C in phenol red-free SDM, or with 1 µM CM-H2DCFDA or 5 µM MitoSOX and 0.5 µM Hoechst 33,342 for 1 h at 37 °C. Fluorescence intensities at 550 nm/580 nm for TMRE, at 510 nm/580 nm MitoSOX, or at 494 nm/522 nm for DCF-DA were normalized by Hoechst intensity at 355 nm/480 nm (Spectramax Gemini EM, Molecular Devices, Sunnyvale, CA, USA).
Endogenous OCR was measured in adherent SH-SY5Y cells using a Seahorse XF-24 Analyzer (Seahorse Bioscience, Billerica, MA, USA) following the manufacturer’s protocol with minor modifications. Briefly, OCR assays were performed using SH-SY5Y cells (5.0 × 10^3 cells/well) equilibrated in DMEM without sodium bicarbonate in XF-24 microplates. After measuring basal OCR for 3 min, oligomycin (1 µg/mL), carbonyl cyanide-p-trifluoromethoxyphenylhydrazone (FCCP) (0.3 µM), and rotenone (0.1 µM) were consecutively added into each well to reach their final working concentrations. The OCR was calculated from 3-min measurement cycles and normalized to cell number.

## CCOc1ccc(C2COc3c(ccc4c3CCC(C)(C)O4)C2)c(O)c1 (centres unmarked) [Vuti, Vutiglabridin]
MAO-B
  IC50: 58.3 µM
[1]; 1 mM MPP+ 20 h, then Vuti 1~100 nM 24 h, Seahorse XF-24
  MPP+-induced reduction in OCR (basal respiration, ATP turnover rate, maximum respiratory capacity): dose-dependently and significantly rescued
[1]; 1 mM MPP+ 24 h, then Vuti 0~1 µM 24 h
  MPP+-induced mitochondrial damage (NADH dehydrogenase complex 1 activity, ATP content, DCF-DA ROS, MitoSOX superoxide): significantly reversed
[1]; 1 mM MPP+, post-treatment with Vuti
  ATP production rates through glycolysis (GlycoATP) and mitochondria (mitoATP): normalized
[1]; SH-SY5Y, 1 mM MPP+
  concentration at which significant restoration of MPP+-induced damage was observed: 1 nM
